Data published in PMC9487510, “A Novel Oral GyrB/ParE Dual Binding Inhibitor Effective against Multidrug-Resistant Neisseria gonorrhoeae and Other High-Threat Pathogens” (Antimicrobial Agents and Chemotherapy, 2022).
Converted amounts (≈) assume the structure as drawn. Read-outs that look alike come from different tables or passages of the source.

Assays:
E. coli = assay: microbe, parasite or virus in culture; format: cell-based; details: Escherichia coli
[1] = test system: vancomycin-resistant enterococci (VRE); assay: MIC, in vitro susceptibility testing (CLSI); format: cell-based; details: Enterococcus
VISA = assay: MIC, in vitro susceptibility testing (CLSI); format: cell-based, Staphylococcus aureus; details: for MIC: Staphylococcus aureus, VISA
hERG K+ channel = hERG K+ channel (Homo sapiens, UniProt Q12809); assay: hERG inhibition, whole-cell patch clamp in HEK-293 cells; details: pH 7.4
Chain of hERG K+ channel (Q12809 whole entry): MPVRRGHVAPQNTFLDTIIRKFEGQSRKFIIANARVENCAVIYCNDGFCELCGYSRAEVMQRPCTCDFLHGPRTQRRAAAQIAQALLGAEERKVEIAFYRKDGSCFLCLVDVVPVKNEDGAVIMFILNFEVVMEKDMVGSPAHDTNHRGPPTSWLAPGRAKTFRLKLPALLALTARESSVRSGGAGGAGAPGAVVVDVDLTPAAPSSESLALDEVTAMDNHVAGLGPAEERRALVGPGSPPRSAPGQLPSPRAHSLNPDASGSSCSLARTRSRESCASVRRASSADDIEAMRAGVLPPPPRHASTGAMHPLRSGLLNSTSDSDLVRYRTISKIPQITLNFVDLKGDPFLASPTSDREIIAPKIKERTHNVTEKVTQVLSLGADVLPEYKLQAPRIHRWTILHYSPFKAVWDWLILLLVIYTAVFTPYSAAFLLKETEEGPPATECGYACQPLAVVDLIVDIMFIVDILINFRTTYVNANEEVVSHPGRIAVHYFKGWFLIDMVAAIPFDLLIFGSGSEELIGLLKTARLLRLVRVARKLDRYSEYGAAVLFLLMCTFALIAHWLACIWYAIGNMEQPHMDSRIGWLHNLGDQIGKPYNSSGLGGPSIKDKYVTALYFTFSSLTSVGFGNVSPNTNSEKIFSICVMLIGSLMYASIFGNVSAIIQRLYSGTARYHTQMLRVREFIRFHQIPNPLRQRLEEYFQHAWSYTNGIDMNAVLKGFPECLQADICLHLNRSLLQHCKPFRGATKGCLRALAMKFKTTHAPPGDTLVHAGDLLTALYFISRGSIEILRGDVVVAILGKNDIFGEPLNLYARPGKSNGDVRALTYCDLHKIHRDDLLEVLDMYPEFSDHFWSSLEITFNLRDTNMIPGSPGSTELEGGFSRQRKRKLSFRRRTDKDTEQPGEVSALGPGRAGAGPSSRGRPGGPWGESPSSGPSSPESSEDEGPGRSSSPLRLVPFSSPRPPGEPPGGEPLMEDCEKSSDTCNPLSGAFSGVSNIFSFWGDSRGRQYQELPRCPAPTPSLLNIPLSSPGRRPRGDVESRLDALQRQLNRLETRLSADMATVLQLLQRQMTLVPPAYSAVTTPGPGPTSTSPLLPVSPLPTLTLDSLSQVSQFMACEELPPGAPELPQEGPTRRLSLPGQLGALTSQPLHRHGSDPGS

C. difficile = assay: MIC, toxigenic C. difficile panel (CLSI); format: cell-based, Clostridioides difficile
MRSE = assay: MIC, in vitro susceptibility testing (CLSI); format: cell-based, Staphylococcus epidermidis; details: for MIC: Staphylococcus epidermidis, MRSE, read-out: MIC
MRSA = assay: MIC, in vitro susceptibility testing (CLSI); format: cell-based, Staphylococcus aureus; details: for MIC: Staphylococcus aureus, MRSA

CNc1cc(F)cc2c1[nH]c1nc(Oc3cnc(C)nc3)nc(N3CCC4(CC3)CO[C@@H](CO)C4)c12 [JSF-2414]
MIC (E. coli): 0.5 µg/mL (≈ 1.01 µM) | MIC ([1]; strain 2138): > 0.5 µg/mL | MIC ([1]; strain 2139): 0.002 µg/mL (≈ 0.00405 µM) | MIC ([1]; strain 2927): 0.008 µg/mL (≈ 0.0162 µM) | MIC ([1]; strain 2966): 0.004 µg/mL (≈ 0.0081 µM) | MIC ([1]; strain 2967): 0.031 µg/mL (≈ 0.0628 µM) | MIC ([1]; strain 3090): > 0.5 µg/mL | MIC ([1]; strain 3091): 0.002 µg/mL (≈ 0.00405 µM) | MIC ([1]; strain 3322): 0.016 µg/mL (≈ 0.0324 µM) | MIC range (VISA; N = 8): 0.0156 to 0.063 µg/mL | MIC (VISA; strain 2 11 43): 0.0156 to 0.031 µg/mL (≈ 0.0316 to 0.0628 µM) | MIC (VISA; strain 2 11 56): 0.063 µg/mL (≈ 0.128 µM) | MIC (VISA; strain 2 11 57): 0.031 to 0.063 µg/mL (≈ 0.0628 to 0.128 µM) | MIC (VISA; strain 2 11 61): 0.0156 to 0.031 µg/mL (≈ 0.0316 to 0.0628 µM) | MIC (VISA; strain 2 11 71): 0.0156 to 0.031 µg/mL (≈ 0.0316 to 0.0628 µM) | MIC (VISA; strain 2 11 78): 0.0156 to 0.031 µg/mL (≈ 0.0316 to 0.0628 µM) | MIC (VISA; strain 2 11 86): 0.031 µg/mL (≈ 0.0628 µM) | MIC (VISA; strain 2 13 52): 0.0156 to 0.031 µg/mL (≈ 0.0316 to 0.0628 µM) | IC50 at 3 min (hERG K+ channel): > 50 µM | MIC (C. difficile; Clostridioides difficile, BAA1805, strain BAA-1805, read-out: MIC): 0.031 µg/mL (≈ 0.0628 µM) | MIC range (C. difficile; N = 9, toxigenic panel): 0.0078 to 0.0630 µg/mL | MIC range (MRSE; N = 4): 0.002 to 0.004 µg/mL | MIC (MRSE; strain 9 25): 0.004 µg/mL (≈ 0.0081 µM) | MIC (MRSE; strain 9 26): 0.002 µg/mL (≈ 0.00405 µM) | MIC (MRSE; strain 9 27): 0.002 µg/mL (≈ 0.00405 µM) | MIC (MRSE; strain 9 28): 0.004 µg/mL (≈ 0.0081 µM) | MIC range (MRSA; 101 strains (Van: 8)): 0.002 to 0.125 µg/mL | MIC (MRSA; 101 clinical MRSA strains, read-out: modal MIC): 0.031 µg/mL (≈ 0.0628 µM) | MIC (MRSA; ciprofloxacin-resistant strains (MIC >4 μg/mL), n = 30, read-out: modal MIC): 0.062 µg/mL (≈ 0.126 µM) | MIC (MRSA; discussion, read-out: MIC): 0.031 µg/mL (≈ 0.0628 µM) | MIC (MRSA; strain 2 11 41, read-out: MIC): 0.062 µg/mL (≈ 0.126 µM) | MIC (MRSA; strain 2 11 42, read-out: MIC): 0.016 µg/mL (≈ 0.0324 µM) | MIC (MRSA; strain 2 11 43, read-out: MIC): 0.062 µg/mL (≈ 0.126 µM) | MIC (MRSA; strain 2 11 56, read-out: MIC): 0.004 µg/mL (≈ 0.0081 µM) | MIC (MRSA; strain 2 11 57, read-out: MIC): 0.125 µg/mL (≈ 0.253 µM) | MIC (MRSA; strain 2 11 58, read-out: MIC): 0.002 µg/mL (≈ 0.00405 µM) | MIC (MRSA; strain 2 11 60, read-out: MIC): 0.004 µg/mL (≈ 0.0081 µM) | MIC (MRSA; strain 2 11 61, read-out: MIC): 0.004 µg/mL (≈ 0.0081 µM) | MIC (MRSA; strain 2 11 65, read-out: MIC): 0.062 µg/mL (≈ 0.126 µM) | MIC (MRSA; strain 2 11 66, read-out: MIC): 0.062 µg/mL (≈ 0.126 µM) | MIC (MRSA; strain 2 11 67, read-out: MIC): 0.004 µg/mL (≈ 0.0081 µM) | MIC (MRSA; strain 2 11 68, read-out: MIC): 0.004 µg/mL (≈ 0.0081 µM) | MIC (MRSA; strain 2 11 71, read-out: MIC): 0.062 µg/mL (≈ 0.126 µM) | MIC (MRSA; strain 2 11 74, read-out: MIC): 0.062 µg/mL (≈ 0.126 µM) | MIC (MRSA; strain 2 11 75, read-out: MIC): 0.008 µg/mL (≈ 0.0162 µM) | MIC (MRSA; strain 2 11 79, read-out: MIC): 0.062 µg/mL (≈ 0.126 µM) | MIC (MRSA; strain 2 11 80, read-out: MIC): 0.002 µg/mL (≈ 0.00405 µM) | MIC (MRSA; strain 2 11 83, read-out: MIC): 0.062 µg/mL (≈ 0.126 µM) | MIC (MRSA; strain 2 11 84, read-out: MIC): 0.031 µg/mL (≈ 0.0628 µM) | MIC (MRSA; strain 2 11 86, read-out: MIC): 0.002 µg/mL (≈ 0.00405 µM) | MIC (MRSA; strain 2 11 87, read-out: MIC): 0.062 µg/mL (≈ 0.126 µM) | MIC (MRSA; strain 2 11 90, read-out: MIC): 0.125 µg/mL (≈ 0.253 µM) | MIC (MRSA; strain 2 11 91, read-out: MIC): 0.016 µg/mL (≈ 0.0324 µM) | MIC (MRSA; strain 2 11 99, read-out: MIC): 0.008 µg/mL (≈ 0.0162 µM) | MIC (MRSA; strain 2 12 13, read-out: MIC): 0.125 µg/mL (≈ 0.253 µM) | MIC (MRSA; strain 2 12 76, read-out: MIC): 0.031 µg/mL (≈ 0.0628 µM) | MIC (MRSA; strain 2 12 78, read-out: MIC): 0.016 µg/mL (≈ 0.0324 µM) | MIC (MRSA; strain 2 12 88, read-out: MIC): 0.004 µg/mL (≈ 0.0081 µM) | MIC (MRSA; strain 2 13 19, read-out: MIC): 0.016 µg/mL (≈ 0.0324 µM) | MIC (MRSA; strain 2 13 23, read-out: MIC): 0.125 µg/mL (≈ 0.253 µM) | MIC (MRSA; strain 2 13 26, read-out: MIC): 0.004 µg/mL (≈ 0.0081 µM) | MIC (MRSA; strain 2 13 27, read-out: MIC): 0.016 µg/mL (≈ 0.0324 µM) | MIC (MRSA; strain 2 13 29, read-out: MIC): 0.002 µg/mL (≈ 0.00405 µM) | MIC (MRSA; strain 2 13 32, read-out: MIC): 0.004 µg/mL (≈ 0.0081 µM) | MIC (MRSA; strain 2 13 33, read-out: MIC): 0.016 µg/mL (≈ 0.0324 µM) | MIC (MRSA; strain 2 13 41, read-out: MIC): 0.125 µg/mL (≈ 0.253 µM) | MIC (MRSA; strain 2 13 43, read-out: MIC): 0.062 µg/mL (≈ 0.126 µM) | MIC (MRSA; strain 2 13 47, read-out: MIC): 0.125 µg/mL (≈ 0.253 µM) | MIC (MRSA; strain 2 13 48, read-out: MIC): 0.002 µg/mL (≈ 0.00405 µM) | MIC (MRSA; strain 2 13 52, read-out: MIC): 0.002 µg/mL (≈ 0.00405 µM)
